Laboratory results from patent publication US20250221947A1, “METHODS FOR TREATING A CORONAVIRUS INFECTION USING VALPROIC ACID AND DOCOSAHEXAENOIC ACID” (priority 2024, published 2025).
Several values for one entry are separate records, joined by “and”; a condition that tells them apart may be missing. Equal values may be shown once. Entries after “also recorded” stand apart in the source; their conditions may differ. Read-outs that look alike come from different tables or passages of the source.

How the values were obtained:
HCoV-229E [1] = assay: HCoV-229E viral replication inhibition in MRC5 cells (antibody- or oligonucleotide-based dot blot); format: cell-based, human coronavirus HCoV-229E; settings: for inhibition of HCoV-229E viral replication, agent alone: MRC5, MOI 0.1, 48 hours drug, antibody-based assay; for IC50: Human coronavirus 229E; for fold reduction of IC50 for inhibition of viral replication by VPA preincubation: preincubation 24 or 48 hours / at least 24 hours prior to infection
SARS-CoV2 [2] = assay: SARS-CoV2 replication in MRC5 cells, viral RNA by qRT-PCR; format: cell-based
SARS-CoV2 [3] = settings: dose range of VPA (M range) less than the IC50 of HDAC2 inhibition; cited from earlier work
COVID-19 [4] = settings: therapeutic VPA cohort; serum levels for 442 of 691 patients; cited from earlier work
[5] = in vivo; cited from earlier work
MRC5 cells = assay: VPA time course RNAseq in MRC5 cells, SARS-CoV2 interacting (Gordon) gene set; format: cell-based, Homo sapiens
COVID-19 [6] = assay: Optum retrospective cohort: clinical progression of COVID-19 in patients prescribed or not prescribed VPA; format: in vivo
HDAC2 = HDAC2 (Chlorocebus sabaeus, UniProt A0A0D9RT33); assay: Direct inhibition of HDAC2 activity in Vero cells; format: cell-based; settings: read-out: IC50 of directly inhibiting HDAC2 activity
HDAC2, sequence (A0A0D9RT33 1-488): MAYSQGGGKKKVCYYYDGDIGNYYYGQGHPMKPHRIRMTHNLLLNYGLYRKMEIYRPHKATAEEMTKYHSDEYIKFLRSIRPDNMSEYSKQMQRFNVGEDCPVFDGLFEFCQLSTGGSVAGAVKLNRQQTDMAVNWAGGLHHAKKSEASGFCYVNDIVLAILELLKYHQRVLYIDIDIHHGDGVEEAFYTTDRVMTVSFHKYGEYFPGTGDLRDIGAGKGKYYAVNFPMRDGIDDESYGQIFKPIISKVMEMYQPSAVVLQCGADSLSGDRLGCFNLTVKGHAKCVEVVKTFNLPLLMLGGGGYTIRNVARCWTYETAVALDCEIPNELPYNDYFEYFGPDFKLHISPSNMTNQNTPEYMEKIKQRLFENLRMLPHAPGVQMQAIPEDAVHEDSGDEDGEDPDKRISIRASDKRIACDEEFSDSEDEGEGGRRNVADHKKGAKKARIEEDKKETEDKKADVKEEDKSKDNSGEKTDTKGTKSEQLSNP

COVID-19 [7] = settings: 165 VPA-treated patients admitted for COVID-19; cited from earlier work
[8] = use in pregnant women; cited from earlier work
[9] = Serum VPA levels in a national data set (LabCorp)
p21 = p21 induction time course in Vero cells; format: cell-based; settings: 2.55 mM VPA
SARS-CoV2 [10] = assay: Optum dataset case-control analysis: COVID-19 positivity by nucleic acid testing in patients prescribed VPA; format: in vivo; settings: patients prescribed VPA vs not, exact-matched multivariate analysis
HCoV-229E [11] = assay: Viral RNA as % of total RNA by RNAseq in MRC5 cells infected with HCoV-229E; format: cell-based, human coronavirus HCoV-229E; settings: drug added after 1 hour viral incubation, 48 hours; VPA 0.1 or 0.5 mM, DHA 25 μM
[12] = COVID-19 infected patients exposed to VPA, propensity-matched or multivariate-adjusted model
[13] = patients on VPA tested by LabCorp, 2021

Structure (SMILES): CC/C=C\C/C=C\C/C=C\CCCCCCCC(=O)O [ALA, alpha-linolenic acid]
- inhibition of HCoV-229E viral replication, agent alone (HCoV-229E [1]): least impact; also recorded: least inhibition

Structure (SMILES): CCCC(CCC)C(=O)O [VPA, valproic acid]
- reduction by 24 hours preincubation (SARS-CoV2 [2]; 24 hours preincubation vs none): more than 50%
- inhibitory activity against SARS-CoV2 (SARS-CoV2 [2]; MRC5, MOI 0.1, VPA 0.5 mM, DHA 25 μM): substantial inhibitory activity
- effect of (additional) preincubation (SARS-CoV2 [2]; VPA: additional preincubation up to 5 days, DHA: preincubation): did not provide any additional effects
- % viral RNA detected compared to control MRC5 cells without drug (SARS-CoV2 [2]; preincubation by 24 hours): less than 10%
- % viral RNA detected compared to control MRC5 cells without drug (SARS-CoV2 [2]; without preincubation): 20%
- inhibition of viral infection (SARS-CoV2 [3]): no measurable inhibition of viral infection
- OR for contracting COVID-19 (COVID-19 [4]): 0.218
- target serum concentrations for seizure disorder [5]: 50 to 100 µg/mL
- IC50 (HCoV-229E [1]; MRC5, HCoV-229E, no preincubation, read-out: IC50 in conventional coronavirus replication assay): ~5000 µM
- IC50 (HCoV-229E [1]; MRC5, HCoV-229E, no preincubation, read-out: IC50 in conventional coronavirus replication assay, translated): > 720 µg/mL
- IC50 (HCoV-229E [1]; MRC5, read-out: IC50 for inhibition of viral replication, MRC5 incubated with valproic acid at least 24 hours prior to infection): ~600 µM
- IC50 (HCoV-229E [1]; MRC5, read-out: IC50 for inhibition of viral replication, corresponding serum level, MRC5 incubated with valproic acid at least 24 hours prior to infection): 85 µg/mL
- dose required for antiviral activity (HCoV-229E [1]; VPA used alone, in vitro testing): > 0.6 mM
- dose requirement of VPA for antiviral activity in combination with DHA (HCoV-229E [1]; combination of DHA and VPA in vitro (FIG. 4B)): 0.1 mM
- fold reduction of IC50 for inhibition of viral replication by VPA preincubation (HCoV-229E [1]): more than 3 fold
- fold reduction of IC50 for inhibition of viral replication by VPA preincubation (HCoV-229E [1]; listed as valproic acid): ~10 fold
- expression of viral pathogenicity and replication genes (Gordon gene set) (MRC5 cells; MRC5 cells, VPA 24 and 48 hours): down-regulated preferentially
- time before gene expression profile changes can be detected (MRC5 cells; coronavirus permissive cell lines, VPA time course): at least 24 hours
- time of maximal gene expression profile changes (MRC5 cells; coronavirus permissive cell lines, VPA time course, in some cases): 72 to 96 h
- reduction in ER visits (COVID-19 [6]; [12]): 12-15%
- reduction in ICU admissions (COVID-19 [6]; [12]): 14-16%
- reduction in hospital admission (COVID-19 [6]; [12]): 17-45%
- reduction in mechanical ventilation (COVID-19 [6]; [12]): 33-39%
- protective effect against emergency room visits (COVID-19 [6]; univariate (unadjusted) logistic regression): no protective effect against emergency room visits
- IC50 (HDAC2): ≥ 2500 µM
- clinical course vs matched controls (COVID-19 [7]): shorter duration of symptoms, lower in-hospital respiratory worsening, lower ICU admissions, and fewer pulmonary infiltrates
- mortality vs matched controls (COVID-19 [7]): not statistically different
- elevation of the risk of certain birth defects [8]: roughly three-fold
- share of samples testing 79 μg/mL or higher ([9]; LabCorp, second quarter of 2021): 25%
- serum VPA level, mean [9, 13]: 56.7 µg/mL and 56.65 µg/mL
- serum VPA level, median [9, 13]: 59.0 µg/mL and 59 µg/mL
- time of earliest p21 induction (p21): 24 h
- time of maximal p21 induction (p21): 72 h
- decreased risk of contracting COVID-19 / reduction in COVID-19 positive testing (SARS-CoV2 [10]): 25%
- effect on viral replication (viral RNA as % of total RNA) (HCoV-229E [11]): not significantly impacted

Structure (SMILES): CC(/C=C/C(=O)NO)=C\[C@@H](C)C(=O)c1ccc(N(C)C)cc1 [Trichostatin A, trichostatin A]
- inhibition of HCoV-229E viral replication, agent alone (HCoV-229E [1]): did not significantly inhibit viral replication
- inhibition of viral replication in combination with DHA (HCoV-229E [1]; with 25 μM DHA): inhibition across the board; also recorded: augmented at the very highest dose of Trichostatin A tested

Structure (SMILES): CCCCC/C=C\C/C=C\CCCCCCCC(=O)O [LA, linoleic acid]
- inhibition of HCoV-229E viral replication, agent alone (HCoV-229E [1]): substantial inhibitory effect; also recorded: significant inhibition of viral replication

Structure (SMILES): C/C=C1\NC(=O)[C@H]2CSSCC/C=C/[C@H](CC(=O)N[C@H](C(C)C)C(=O)N2)OC(=O)[C@H](C(C)C)NC1=O [depsipeptide]
- IC50 (HCoV-229E [1]; MRC5, read-out: IC50 of inhibition of viral replication, with 25 μM DHA): 0.0001 µM
- IC50 (HCoV-229E [1]; MRC5, read-out: IC50 of inhibition of viral replication, without DHA): 0.0008 µM
- inhibition of HCoV-229E viral replication, agent alone (HCoV-229E [1]): significant inhibition of viral replication
